Broadly, the IC50 is the concentration at which inhibition is half-maximal.

Here are results for four substances from patent publication US5821329A, “Cyclic peptide inhibitors of β1 and β2 integrin-mediated adhesion” (Tanabe Seiyaku Co., Ltd., priority 1996, dated 1998).

Experiment [1] has as its system Jurkat cell adhesion to IL-1 stimulated endothelial cells (β1 integrins, α4 β1). The experiment can be described thus: Jurkat-Endothelial Cell Adhesion Assay. The note with it: Jurkat T cells on IL-1 stimulated HUVEC; no unit printed in the table (text gives IC50 and test concentrations in μM); read-out: IC50 for adhesion inhibition Jurk-EC. The experiment is classed as cell-based, human. As for the experimental part:
Jurkat-Endothelial Cell Adhesion Assay […] This assay measured the adhesive interactions of a T-cell line, Jurkat, known to express high levels of α4 β1, to endothelial cell monolayers in the presence of representative test compounds of the present invention. The test compounds were added in increasing concentrations to T-cells and then the T-cell/compound mixture was added to IL-1 stimulated endothelial cell monolayers. The plates were incubated, washed and the percentage of attached cells was quantitated. […] Human umbilical vein endothelial cells (HUVEC) were purchased from Clonetics (San Diego, Calif.) at passage number 2. The cells were grown on 0.5% porcine skin gelatin pre-coated flasks (Sigma, St. Louis, Mo.) in EGM-UV media (Clonetics, San Diego, Calif.) supplemented with 10% fetal bovine serum. Cells were re-fed every 2-3 days, reaching confluence by day 4 to 6. […] The endothelial cells were not used following passage 7. The T-cell line Jurkat was obtained from American Type Culture Collection and cultured in RPMI media containing 10% fetal calf serum. […] Following this incubation, the monolayers were washed twice with PBS containing 1 mM calcium chloride and 1 mM magnesium chloride and the plates were read using a Millipore Cytofluor 2300 (Marlboro, Mass.). […] Monolayers were also fixed in 3% paraformaldehyde and evaluated microscopically to verify the adhesion. […]

The test system of experiment [2] is JY cell adhesion to TNF stimulated endothelial cells (β2 integrins). The experiment can be described thus: JY-Endothelial Cell adhesion assay. The format is cell-based, human. The conditions noted are these: JY B cells + PMA on rTNF-stimulated HUVEC; no unit printed in the table (text gives IC50 and test concentrations in μM); read-out: IC50 for adhesion inhibition JY-EC. As for the experimental part:
The JY-Endothelial Cell Assay
The following assay established the activity of the present compounds in inhibiting cell adhesion through β2 integrins in a representative in vitro system.
The human B cell line, JY, was cultured in RPMI media containing 10% fetal calf serum at 37° C., in a humidified CO2 atmosphere. Endothelial cells were grown to confluency in 96-well micro-titer assay plates, as in the Jurkat-EC assay. Before the assay, the endothelial cells were stimulated with 50 U/ml rTNF for 18-24 hours at 37° C. JY cells were loaded with the fluorescent dye indicator BCECF-AM as follows: JY cells were washed twice with HBSS and cells were resuspended in HBSS at 5×10^6 cells/ml; BCECF-AM (Molecular Probes), stock concentration=1 mg/ml in DMSO, was added to the JY cells to a final concentration of 2 μg/ml; cells were incubated in the dark at 37° C. for 30-45 minutes; washed twice with HBSS and used in the assay. […]
The assay plates were then typically incubated for 30 min at 37° C. and washed four times with PBS containing Mg^2+ and Ca^2+ (room temp). 100 μl of PBS containing Mg^2+ and Ca^2+ were added to each well and the fluorescence from the adherent BCECF-labelled cells was analyzed using a fluorescence plate reader. […]

Turning to “(1-FCA)-Arg-Cys*-(β-Asp)-(ThioP)-Cys*-Ala-Ala-Asp-(OFm) [Compound 35]”, in experiment [1], the IC50 was determined as 267 µM.
As to “(9-FAc)-Arg-Cys*-(β-Asp)-(ThioP)-Cys*-(Abu)-Lys [Compound 65]”, the IC50 in experiment [2] is 353 µM.
“(Ac)-Arg-Cys*-(β-Asp)-(ThioP)-Cys*-Ala-Asp-(OFm) [Compound 37]”: the IC50 in experiment [1] amounted to 106 µM.
In the case of “(Fmoc)-Arg-Cys*-(β-Asp)-(ThioP)-Cys* [Compound 22]”, the IC50 in experiment [2] amounted to 52 µM.
